{
  "source": "patent US11590154B2",
  "about": "“Triple antibiotic fixed-dose combination products, dosing regimen, methods, and kits for treating pulmonary non-tuberculosis mycobacterial infections” (priority 2020, dated 2023)",
  "key": {"M. avium": {"system": "M. avium", "assay": "MIC of antibiotics by broth microdilution, M. avium strains of Examples 3 and 4", "assay_type": "cell-based, Mycobacterium avium subsp. hominissuis", "details": "7H10 agar plates for tissue CFU counts", "protocol": "Susceptibility testing was conducted using broth microdilution single and twofold dilutions as described in the literature. Suspensions were prepared by swabs on a growth plate with a sterile cotton swab, or were prepared in broth culture. The growth was transferred to a 4.5 mL of phosphate buffer solution (PBS) until the turbidity matched the density of a 0.5 McFarland standard. Suspensions were then vigorously mixed on a vortex mixer for 15 to 20 seconds. The final inoculum was prepared to a bacterial density of 10^5. The tube was inverted 8-10 times to mix the suspension.\nFollowing both the four-week and eight-week treatment period, mice were sacrificed, and lungs and spleens were harvested for CFU counts in each tissue and compared to CFUs recovered in the baseline and vehicle-treated groups. Tissue samples were plated with and without antibiotic on 7H10 agar. Antibiotic plates were made with minimum inhibitory concentrations (MICs) of 8 μg/ml for clarithromycin, and 0.25, μg/ml for both rifabutin (RFB) and clofazimine (CFZ). Plates were made for each of clarithromycin (CLR) alone, clarithromycin plus either rifabutin (CLR+RFB) or clofazimine (CLR+CFZ) and the three-drug combination (CLR+RFB+CFZ). All plates were incubated in a microbiological incubator at 37° C. for 14 days."}, "[1]": {"system": "intracellular MAC in THP-1 monocytes", "assay": "Hollow fiber system model of MAC (HFS-MAC): microbial kill", "assay_type": "cell-based, Mycobacterium avium complex", "details": "HF experiments", "experimental": "The anti-mycobacterial effects of CLR, CFZ, and RFB was evaluated in the hollow fiber system model of MAC (HFS-MAC), which recapitulates the intrapulmonary concentrations of these antibiotics. The HFS-MAC allows for an assessment of the contribution of individual drug components in terms of anti-mycobacterial effects and enables exploration of potential synergy, additivity, or antagonism of different doses of drugs and combination regimens on the log-phase growth of intracellular MAC, for both microbial kill and resistance suppression.\nA two-part investigation was conducted to assess the contribution of components of various FDC products comprising CLR, CFZ, and RFB in terms of depth and rate of MAC kill and suppression of the emergence of resistance. The anti-MAC activity of each antibiotic component was evaluated as one-drug alone; as two-drug combinations and the three-drug combination. For each combination (singlet, doublet or triplet), the drug concentrations were sampled from the HF fluid bathing MAC-infected cells. […] Anti-MAC activity was evaluated by kill slopes defined as the kill rate constant (and the half-life of kill [reciprocal of the kill rate constant]) as well as the maximum kill, defined as the maximum reduction in MAC CFUs and compared between the different antibiotic combinations.\nMAC was grown into log-phase for 4 days, parallel with cultivation of THP-1 monocytes. The THP-1 cells were then infected with MAC overnight at a multiplicity of infection of 1:1. The THP-1 cells were washed to remove extracellular bacteria, and 20 mL of 1×10^6 (6.0 log10) cells/mL were inoculated into each HFS-MAC on Study Day 0. The peripheral compartment is the abluminal hollow fibers space that is also enclosed by the plastic, while the intraluminal space and flow path form the central compartment. […]"}, "[2]": {"assay": "7-day mouse tolerability and PK study", "details": "for Cavg (clofazimine): AUCtlast/24 h; for AUC(0-t): AUCtlast (clofazimine); for AUC(0-t) / Cmax: mouse plasma; for Cmax: Cmax (clofazimine)", "protocol": "Sixty (60) female mice were tested, 12 per treatment groups: […]"}, "MAC bacteria": {"system": "MAC bacteria", "assay_type": "cell-based, Mycobacterium avium complex", "details": "2×MIC; starting inoculum 5.5 log10 CFU/ml", "protocol": "In vitro, efficacy was studied in static time-kill kinetics assays (at 2×minimum inhibitory concentration [MIC]), intended to mirror a desired peak serum concentration for all three antibiotics using an established assay. All experiments were performed with a starting inoculum of 5.5 log10 CFU/ml MAC bacteria, higher than the bacterial load expected in the airway secretions of patients with mild nodular-bronchiectatic disease due to MAC."}, "M. avium 104 biofilm": {"system": "M. avium 104 biofilm", "assay": "In vitro biofilm model of infection", "assay_type": "cell-based, Mycobacterium avium subsp. hominissuis", "details": "mean ± SD; CLR 1.9-4.3 μg/mL, RFB 0.04 μg/mL, CFZ 0.0005 μg/mL"}, "[3]": {"assay": "Concentration vs. QTcF analysis of MAP Study data (linear mixed-effects model)", "assay_type": "in vivo, human", "protocol": "A concentration vs. QTcF analysis was performed on a subset of data from the MAP Study where the PK sample was drawn within 1 hour of ECG extraction. The rationale for this window was based primarily on the assumption that at least for the rifabutin and clofazimine components, the long half-life would result in modest fluctuation of concentration over the dosing interval and thus the concentrations used in the analysis would enable fitting of a linear model suitable for prediction of the effect at the maximum concentration for each component (Cmax). Initially, a full model (including clarithromycin, 14-OH-clarithromycin, rifabutin, 25-O-desacetyl-rifabutin, and clofazimine) with random intercept and slopes per subject was fit and an unstructured covariance structure was used. […] Several models were then assessed with the best model retained, where only clofazimine concentration was retained as the drug component predictor of QT response.\nThe relationship between the individually observed clofazimine plasma concentrations and estimated placebo-adjusted ΔQTcF (i.e., ΔΔQTcF) is shown in FIG. 9. The solid line and the dotted line denotes the model-predicted mean ΔΔQTcF with 90% CI. The squares and circles denote the pairs of observed clofazimine plasma concentrations and estimated placebo-adjusted ΔQTcF by subjects for the RHB-104 and placebo treatment groups, respectively. […]"}, "NTM": {"system": "NTM", "details": "mouse models of systemic and lung infection; preclinical literature; cited from earlier work"}, "[4]": {"details": "cited from earlier work; for airway concentration relative to plasma (ELF:plasma ratio as percent): Dheda et al. 2018"}, "MAC [5]": {"system": "MAC", "assay": "MIC of the MAC strains used in the HFS-MAC studies", "assay_type": "cell-based, Mycobacterium avium complex", "details": "Mycobacterium avium", "protocol": "The MAC strain used in the HFS-MAC studies was ATCC strain 700898. The study center also had 5 well-characterized clinical strains that have undergone whole-genome sequencing and habituation to the HFS-MAC. Stock cultures of MAC were stored at −80° C. in Middlebrook 7H9 broth with 10% OADC and 10% glycerol. THP-1 monocytes were stored in liquid nitrogen and have been habituated for the HFS-MAC growth conditions."}, "MAC [6]": {"system": "MAC", "assay": "Lung histopathology of mice infected with MAC and treated for four and eight weeks", "assay_type": "in vivo, Mycobacterium avium complex", "details": "32 sections per group", "excerpt": "Lung and Spleen Histopathology of Mice Infected with MAC and Treated with FDC Components Alone and in Combination for Four and Eight Weeks of Treatment\nEach of the experimental group had eight cut examined from each lung (8×2 lungs=16×2 mice=32 sections). Lungs were normal and not showing any pathology at pre-infection."}, "[7]": {"details": "female, C57BL/6, mouse, plasma, po, 10 mg/kg, Day 1, CFZ 10 mg/kg alone, oral"}, "[8]": {"details": "female, C57BL/6, mouse, plasma, po, 10 mg/kg, Day 7, CFZ 10 mg/kg alone, oral once daily"}, "[9]": {"details": "female, C57BL/6, mouse, plasma, po, 30 mg/kg, Day 1, CFZ 30 mg/kg alone, oral"}, "[10]": {"details": "female, C57BL/6, mouse, plasma, po, 30 mg/kg, Day 7, CFZ 30 mg/kg alone, oral once daily"}, "[11]": {"details": "female, C57BL/6, mouse, plasma, po, 30 mg/kg, Day 7, CFZ 30 mg/kg with CLR 200 mg/kg and RFB 60 mg/kg, oral once daily"}},
  "note": "Entries after “also recorded” stand apart in the source; their conditions may differ. Where two headings read alike, the source gives them in different places.",
  "data": [
    {"smiles": "CC(C)/N=c1\\cc2n(-c3ccc(Cl)cc3)c3ccccc3nc-2cc1Nc1ccc(Cl)cc1", "note": "[Clofazimine, clofazimine]", "values": [
      {"measurement": "minimum inhibitory concentrations (MICs) used for antibiotic plates", "setting": "M. avium", "result": 0.25, "unit": "µg/mL"},
      {"measurement": "effect on CFUs / MAC killing, summary", "setting": "[1]", "result": "CFU counts increased"},
      {"measurement": "Cavg (clofazimine)", "setting": "[2]; Day 7, CFZ 10 mg/kg alone", "result": 223, "unit": "ng/mL"},
      {"measurement": "Cavg (clofazimine)", "setting": "[2]; Day 7, CFZ 30 mg/kg alone", "result": 411, "unit": "ng/mL"},
      {"measurement": "Cavg (clofazimine)", "setting": "[2]; Day 7, CFZ 30 mg/kg with CLR 200 mg/kg and RFB 60 mg/kg", "result": 829, "unit": "ng/mL"},
      {"measurement": "Tmax", "setting": "[2]; female, C57BL/6, mouse, in vivo, po, 10 mg/kg, tmax (clofazimine)", "result": 4, "unit": "h"},
      {"measurement": "AUC(0-t)", "setting": "[2]; female, C57BL/6, mouse, in vivo, po, 30 mg/kg, Day 1, CFZ 30 mg/kg with CLR 200 mg/kg and RFB 60 mg/kg, oral", "result": 2230, "unit": "ng·h/mL"},
      {"measurement": "AUC(0-t)", "setting": "[2]; [7]", "result": 2150, "unit": "ng·h/mL"},
      {"measurement": "AUC(0-t)", "setting": "[2]; [8]", "result": 5340, "unit": "ng·h/mL"},
      {"measurement": "Cmax", "setting": "[2]; [7]", "result": 108, "unit": "ng/mL"},
      {"measurement": "Cmax", "setting": "[2]; [8]", "result": 277, "unit": "ng/mL"},
      {"measurement": "AUC(0-t)", "setting": "[2]; [9]", "result": 3690, "unit": "ng·h/mL"},
      {"measurement": "AUC(0-t)", "setting": "[2]; [10]", "result": 9870, "unit": "ng·h/mL"},
      {"measurement": "AUC(0-t)", "setting": "[2]; [11]", "result": 19900, "unit": "ng·h/mL"},
      {"measurement": "Cmax", "setting": "[2]; [9]", "result": 181, "unit": "ng/mL"},
      {"measurement": "Cmax", "setting": "[2]; female, C57BL/6, mouse, plasma, po, 30 mg/kg, Day 1, CFZ 30 mg/kg with CLR 200 mg/kg and RFB 60 mg/kg, oral", "result": 152, "unit": "ng/mL"},
      {"measurement": "Cmax", "setting": "[2]; [10]", "result": 460, "unit": "ng/mL"},
      {"measurement": "Cmax", "setting": "[2]; [11]", "result": 957, "unit": "ng/mL"},
      {"measurement": "activity as single drugs", "setting": "MAC bacteria", "result": "bacteriostatic activity"},
      {"measurement": "Colony Forming Unit Concentration, Four Days", "setting": "M. avium 104 biofilm", "result": "1.91 ± 0.6 × 10^7 CFU/mL"},
      {"measurement": "Colony Forming Unit Concentration, Seven Days", "setting": "M. avium 104 biofilm", "result": "1.42 ± 0.5 × 10^7 CFU/mL"},
      {"measurement": "treatment effect-specific intercept", "setting": "[3]; 90% CI 0.76 to 4.29", "result": 2.52, "unit": "ms"},
      {"measurement": "estimated population slope of the concentration-QTc relationship", "setting": "[3]; clofazimine plasma concentration, RHB-104 MAP Study, 90% CI 0.0337 to 0.0410", "result": 0.037, "unit": "ms per ng/mL"},
      {"measurement": "Effective Dose", "setting": "NTM", "result": 20, "unit": "mg/kg/day"},
      {"measurement": "airway concentration relative to plasma (ELF:plasma ratio as percent)", "setting": "[4]", "result": "approximately 0.19%"},
      {"measurement": "airway concentration relative to plasma (ELF:plasma ratio as percent)", "setting": "[4]; listed as CFZ", "result": "approximately 0.2%"},
      {"measurement": "ELF:plasma ratio", "setting": "[4]; epithelial lining fluid to total plasma/serum", "result": 0.0019},
      {"measurement": "half-life", "setting": "[4]; human, in vivo", "result": "> 100", "unit": "days"},
      {"measurement": "MIC", "setting": "MAC [5]; Clinical strain #1", "result": 0.25, "unit": "µg/mL"},
      {"measurement": "MIC", "setting": "MAC [5]; Clinical strain #2", "result": 0.25, "unit": "µg/mL"},
      {"measurement": "MIC", "setting": "MAC [5]; Clinical strain #3", "result": 0.25, "unit": "µg/mL"},
      {"measurement": "MIC", "setting": "MAC [5]; Clinical strain #4", "result": 0.25, "unit": "µg/mL"},
      {"measurement": "MIC", "setting": "MAC [5]; Clinical strain #5", "result": 0.25, "unit": "µg/mL"},
      {"measurement": "Lung Histopathology Findings", "setting": "MAC [6]", "result": "Mild diffuse congestion; also recorded: Minimal multi-focus congestion of lymphocytes and plasma cells; also recorded: Granulomas in multiple locations with mild number of bacteria; also recorded: Infiltrates into the bronchiolar walls"}
    ]}
  ]
}
